Measurements as given in US7498336B2, “Deazaflavin compounds and methods of use thereof” (The United States of America as represented by the …, priority 2003, dated 2009).

Legend:
[1] = tested on: Normal human fibroblast MRC-5; assay: Cell based assay for accumulation of MDM2 and p53 (immunoblot); conditions: MRC-5 cells, 50 μM, 8 hours
Procedure: Methods: Normal human fibroblast MRC-5 were chosen to determine whether the compounds from the high throughput screening can inhibit the E3 activity of Mdm2, i.e. stabilizing MDM2 and p53 in vivo. After being seeded in 12-well tissue culture cluster overnight, the cells were treated with 50 μM of the compounds for 8 hours. They were harvested with trypsin-EDTA, washed with PBS, and lysed with RIPA buffer. Following removal of insoluble pellet by centrifugation for 20 minutes at 10000 rpm, the lysate was separated on 4-20% gradient SDS-polyacrylamide gel and transferred onto nitrocellulose membrane. The membrane was then blotted with anti-p53 antibody (DO-1), anti-MDM2 antibodies (Ab-1 and Ab-2), anti-p27 (Santa Cruz), anti-Nedd4, and anti-p21Waf1 antibody. After extensive washing with PBS containing 0.5% Triton X-100, it was incubated with HRP-labeled donkey anti-mouse antibody and visualized using enhanced chemiluminescence.

[2] = tested on: E1A-transformed RPE cells; assay: Apoptosis in E1A-transformed RPE cells; type: cell-based, human; conditions: FIG. 4 left
Description: Cell-based assays include model systems where primary human epithelial cells (“normal cells”) are compared to the same cells expressing the adenovirus E1A oncogene (“transformed cells”). Activation of p53 was not toxic to normal cells, but activation of p53 in transformed cells induces p53-mediated apoptosis. High concentrations of wild type (wt) p53 protein can induce apoptosis in a variety of different tumor cells. Potential inhibitors of MDM2 would regulate the stability and function of p53 and MDM2. Preferably the assays measure number of cells undergoing apoptosis due to MDM2 induced p53 degradation in tumor cells in the presence or absence of candidate compounds as compared to normal cells in the presence or absence of candidate compounds. An increase in the number of these cells undergoing apoptosis in the presence of candidate compounds in tumor cells, as compared to normal untreated cells is indicative of a potential anti-tumor compound. […]
Apoptosis and cell death were determined by FACS analysis of sub-G1 nuclei or counting trypan blue-positive cells under microscope. Caspase activity was measured using fluorogenic substrate Ac-DEVD-AFC and CytoFluor multi-well plate reader (PerSeptive Biosystems). […]

## COc1cccc2c1C(=O)c1c(O)c3c(c(O)c1C2=O)C[C@@](O)(C(=O)CO)C[C@@H]3O[C@H]1C[C@H](N)[C@H](O)[C@H](C)O1 [adriamycin, reference compound]
[1]
  p53 level: increased only p53
[2]
  apoptosis: markedly increased apoptosis
